Results taken from patent publication US20190241569A1, “3-(ARYL OR HETEROARYL) METHYLENEINDOLIN-2-ONE DERIVATIVES AS INHIBITORS OF CANCER STEM CELL PATHWAY KINASES FOR THE TREATMENT OF CANCER” (Boston Biomedical, Inc., priority 2013, published 2019).
Like-named read-outs stand apart in the source and are kept apart here.

Tests used:
A549 CSC = test: Cancer stem cells, Cell Titer-Glo 72 hours (Test Example 3); format: cell-based; details: Homo sapiens
FaDu CSC = test: as above; format: cell-based; details: Homo sapiens, FaDu, 72 h
A549 = test: Bulk cancer cells, Cell Titer-Glo 72 hours (Test Example 2); format: cell-based; details: Homo sapiens
Protocol: (§1) Tubes of 3× drug (60 uM in 500 uL complete media) were prepared from 5 mM stock solutions in DMSO. […] To treat cells, 50 uL of drug from the dilution plate was removed and added to the cell plates. […] Cells were harvested 72 hours after drug addition using Cell Titer-Glo (Promega) and luminescence measured on a plate reader.

ACHN = test: as above; format: cell-based; details: Homo sapiens, ACHN, 72 h
Protocol: as §1

FaDu = test: as above; format: cell-based; details: Homo sapiens
Protocol: as §1

ACHN CSC = test: Cancer stem cells, Cell Titer-Glo 72 hours (Test Example 3); format: cell-based; details: Homo sapiens, ACHN, 72 h
p-RPS6 Ser235/236 = test: Kinase inhibition, Western blot in HeLa cells (Test Example 5); format: cell-based; details: Homo sapiens, 6 hours, DMSO = 100, read-out: p-RPS6 Ser235/236 Relative Intensity (%)
Protocol: (§2) HeLa cells were treated with 5 uM of the indicated compound for 6 hours. Following compound incubation, cells were washed twice with ice-cold PBS and lysed in lysis buffer (50 mM HEPES, pH 7.5, 1% Nonidet P40, 150 mM NaCl, 1 mM EDTA, 1× protease inhibitor cocktail (Promega)). 30 micrograms of soluble protein was separated by SDS-PAGE and transferred to PVDF membranes. Primary antibodies against p-AMPK Thr172, p-RPS6 Ser235/236, p-RPS6 Ser240/244, and Tubulin (Cell Signaling Technology) were used. The antigen-antibody complexes were visualized by enhanced chemiluminescence (BioRad). The results are shown below in Tables 17A-17E.

p-RPS6 Ser240/244 = test: as above; format: cell-based; details: Homo sapiens, 6 hours, DMSO = 100, read-out: p-RPS6 Ser240/244 Relative Intensity (%)
Protocol: as §2

p-AMPK Thr172 = test: as above; format: cell-based; details: Homo sapiens, 6 hours, DMSO = 100, read-out: p-AMPK Relative Intensity (%)
Protocol: as §2

human RIOK2 protein = biological target: T1, human RIOK2 protein (Homo sapiens, UniProt Q9BVS4); test: RIOK2 autophosphorylation ELISA (Test Example 4); format: biochemical
T1 construct: glutathione S-transferase is fused to N-terminal of a full-length human RIOK2 protein; GST (glutathione S-transferase) (N); purchased CarnaBio, Inc; host or cells: baculovirus-Sf21 cell expression system
T1 sequence (Q9BVS4 whole entry, the tested form may be a part): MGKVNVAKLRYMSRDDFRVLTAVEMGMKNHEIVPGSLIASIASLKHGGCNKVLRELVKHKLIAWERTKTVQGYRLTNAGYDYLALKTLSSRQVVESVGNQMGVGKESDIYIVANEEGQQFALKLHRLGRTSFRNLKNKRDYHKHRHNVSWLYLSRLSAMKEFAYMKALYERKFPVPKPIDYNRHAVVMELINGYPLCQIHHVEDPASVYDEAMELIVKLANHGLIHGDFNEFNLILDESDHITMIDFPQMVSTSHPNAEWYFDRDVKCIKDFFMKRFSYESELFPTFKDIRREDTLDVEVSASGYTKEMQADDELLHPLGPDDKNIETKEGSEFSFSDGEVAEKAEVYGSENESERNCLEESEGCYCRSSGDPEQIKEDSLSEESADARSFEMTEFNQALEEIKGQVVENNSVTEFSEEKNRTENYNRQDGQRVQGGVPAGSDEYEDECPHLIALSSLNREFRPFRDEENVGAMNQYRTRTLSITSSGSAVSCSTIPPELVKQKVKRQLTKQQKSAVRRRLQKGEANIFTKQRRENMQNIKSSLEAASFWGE

SMILES	IC50 (A549 CSC) [nM]	IC50 (FaDu CSC) [nM]	IC50 (A549) [nM]	IC50 (ACHN) [nM]	IC50 (FaDu) [nM]	IC50 (ACHN CSC) [nM]	activity at 5 µM (p-RPS6 Ser235/236; 5 uM) [%]	activity at 5 µM (p-RPS6 Ser240/244; 5 uM) [%]	activity at 5 µM (p-AMPK Thr172; 5 uM) [%]	activity at 5 µM (p-RPS6 Ser235/236; 5 uM compound, Western blot) [%]	activity at 5 µM (p-RPS6 Ser240/244; 5 uM compound, Western blot) [%]	activity at 5 µM (p-AMPK Thr172; 5 uM compound, Western blot) [%]	inhibition at 1 µM (human RIOK2 protein; read-out: Inhibitory activity at 1 μM (%)) [%]	inhibition at 10 µM (human RIOK2 protein; read-out: Inhibitory activity at 10 μM (%)) [%]
CCN(CC)CCNC(=O)c1c(C)[nH]c(/C=C2\C(=O)Nc3ccc(-c4ccc(-c5ccccc5)o4)cc32)c1C [Example 56, (Z)-N-(2-(diethylamino)ethyl)-2,4-dimethyl-5-((2-oxo-5-(5-phenylfuran-2-yl)indolin-3-ylidene)methyl)-1H-pyrrole-3-carboxamide]	8250	1410	4300	3660	3090	250	19	64	144					
CCN(CC)CCNC(=O)c1c(C)[nH]c(/C=C2\C(=O)Nc3c2cccc3-c2cncnc2)c1C [Example 282]	27500	6730	21500	16400	36300	10900				71	72	60		
CCN(CC)CCNC(=O)c1c(C)[nH]c(/C=C2\C(=O)Nc3c2cccc3-c2ccncc2)c1C [Example 284]	12600	4410	6850	6390	6740	4990				60	65	56		
Cc1[nH]c(/C=C2\C(=O)Nc3cc(-c4csc(-c5ccccc5)n4)ccc32)c(C)c1C(=O)N1CCN(C)CC1 [Example 8]	1220	1030	26300	11600	4740	390	33	73	150					
CCN(CC)CCNC(=O)c1c(C)[nH]c(/C=C2\C(=O)Nc3ccc(-c4csc(-c5ccccc5)n4)nc32)c1C [Example 118]	620	110	1740	1370	1370	970	5	42	35					
Cc1[nH]c(/C=C2\C(=O)Nc3c2cccc3-c2csc(-c3ccccc3)n2)c(C)c1C(=O)N1CCN(C)CC1 [Example 10]	4190	2990	5410	15200	5410	500	2	32	122					
Cc1cc(C)c(/C=C2\C(=O)Nc3ccc(-c4ccc5cn[nH]c(=O)c5c4)cc32)[nH]1 [Example 240]	3000	2960	1400	1120	2550	260	1	24	39					
CCN(CC)CCNC(=O)c1c(C)[nH]c(/C=C2\C(=O)Nc3ccc(-c4csc(-c5ccc(O)cc5)n4)cc32)c1C [Example 126]	6990	1850	3060	1380	700	500	79	88	47					
CCN(CC)CCNC(=O)c1c(C)[nH]c(/C=C2\C(=O)Nc3c2cccc3-c2ccc3cc[nH]c3c2)c1C [Example 285]	3900	2060	2910	3000	2770	1860				29	44	39		
Cc1[nH]c(/C=C2\C(=O)Nc3ccc(-c4cnn(-c5ccccn5)c4)cc32)c(C)c1C(=O)NCCN1CCCC1 [Example 33]	11700	1650	2530	1640	2530	220	82	92	52				53	91
CCN(CC)CCNC(=O)c1c(C)[nH]c(/C=C2\C(=O)Nc3ccc(-c4ccc(-c5ccccc5)cn4)cc32)c1C [Example 197]	3790	4810	2020	5380	2720	650	61	82	118					
CCN(CC)CCNC(=O)c1c(C)[nH]c(/C=C2\C(=O)Nc3ccc(-c4cccnc4)cc32)c1C [Example 210]	3900	4310	840	1310	2820	1060	1	31	8					
Cc1cc(C)c(/C=C2\C(=O)Nc3ccc(-c4csc(C5CCCNC5)n4)cc32)[nH]1 (centres unmarked) [Example 140]	1700	480	1340	1640	1580	50	6	34	69					
CCN(CC)CCNC(=O)c1c(C)[nH]c(/C=C2\C(=O)Nc3cccc(-c4ccc(-c5ccccc5)cc4)c32)c1C [Example 109]	4320	280	5090	1600	1110	330	2	23	8					
Cc1[nH]c(/C=C2\C(=O)Nc3ccc(-c4csc(-c5ccccc5)n4)nc32)c(C)c1C(=O)NCCN1CCCC1 [Example 119]	2470	170	1430	1520	1730	400	13	51	41					
CCN(CC)CCNC(=O)c1c(C)[nH]c(/C=C2\C(=O)Nc3c2cccc3-c2csc(-c3ccccc3)n2)c1C [Example 9]	1570	1260	1960	3200	3750	280	2	32	144					
CCN(CC)CCNC(=O)c1c(C)[nH]c(/C=C2\C(=O)Nc3c2cccc3-c2cncc(C)c2)c1C [Example 283]	2230	2200	3360	1680	6230	1970				47	59	50		
